# According to PubChem BioAssay (NCI):
#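 Following 48 hours of exposure in 96-well plates, responses at five concentrations were used to interpolate endpoints linearly. TGI: total growth inhibition.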
# Assays:
# Test in all cases: inhibition of tumour cell growth, NCI panel, 48 h
# CAKI-1 renal = system: CAKI-1 renal
# HCC-2998 colon = system: HCC-2998 colon
# HCT-116 colon = system: HCT-116 colon
# HT29 colon = system: HT29 colon
# KM12 colon = system: KM12 colon
# MALME-3M melanoma = system: MALME-3M melanoma
# MDA-MB-231 breast = system: MDA-MB-231 breast
# OVCAR-5 ovarian = system: OVCAR-5 ovarian
# SF-268 CNS = system: SF-268 CNS
# SK-MEL-5 melanoma = system: SK-MEL-5 melanoma
# TK-10 renal = system: TK-10 renal
SMILES,TGI (CAKI-1 renal),TGI (HCC-2998 colon),TGI (HCT-116 colon),TGI (HT29 colon),TGI (KM12 colon),TGI (MALME-3M melanoma),TGI (MDA-MB-231 breast),TGI (OVCAR-5 ovarian),TGI (SF-268 CNS),TGI (SK-MEL-5 melanoma),TGI (TK-10 renal)
O=[N+]([O-])c1ccc(C2NC(=S)NC3c4cc([N+](=O)[O-])ccc4CCCC23)cc1 (configuration not stated),> 100 µM,> 100 µM,> 100 µM,> 100 µM,> 100 µM,> 100 µM,> 100 µM,> 100 µM,> 100 µM,> 100 µM,> 100 µM
CC1=C(N2CC2)C(=O)C(C)=C(N2CC2)C1=O,1.37 µM,0.362 µM,19.3 µM,1 µM,1.89 µM,0.541 µM,> 100 µM,3.3 µM,1.08 µM,0.363 µM,1.5 µM
CCOC(=O)Cc1ccc(Nc2nc3cc(F)c(F)cc3nc2C(=O)OCC)cc1,42.9 µM,69.6 µM,> 100 µM,> 100 µM,> 100 µM,> 100 µM,9.08 µM,> 100 µM,> 100 µM,> 100 µM,> 100 µM
Oc1ccccc1CNCc1ccccc1O,> 100 µM,36.7 µM,> 100 µM,> 100 µM,> 100 µM,> 100 µM,> 100 µM,> 100 µM,> 100 µM,> 100 µM,> 100 µM
Oc1c(Cl)c(Cl)c(O)c(-c2cnc(-c3ncc(-c4c(O)c(Cl)c(Cl)c(O)c4Cl)s3)s2)c1Cl,41.2 µM,> 100 µM,42 µM,> 100 µM,> 100 µM,71.3 µM,42.8 µM,36.4 µM,55.3 µM,30.1 µM,70.1 µM
O=c1[nH]c(Br)nc2n[nH]nc12,> 100 µM,> 100 µM,> 100 µM,> 100 µM,> 100 µM,> 100 µM,> 100 µM,> 100 µM,> 100 µM,> 100 µM,> 100 µM
Nc1n[nH]c(N)n1,8860 µM,> 10000 µM,> 10000 µM,> 10000 µM,> 10000 µM,> 10000 µM,> 10000 µM,> 9810 µM,> 10000 µM,> 10000 µM,> 10000 µM
CC(C)(C)c1cc(OCc2n[nH]c(=S)n2N)c(Cl)cc1OCc1n[nH]c(=S)n1N,> 100 µM,> 100 µM,> 100 µM,> 100 µM,> 100 µM,> 100 µM,> 100 µM,> 100 µM,> 100 µM,54.6 µM,> 100 µM
c1cc2cc(Cc3ccc4[nH]ccc4c3)ccc2[nH]1,33.5 µM,28.8 µM,33.1 µM,33.1 µM,30.9 µM,34.4 µM,33.8 µM,39.7 µM,55.7 µM,30 µM,52.3 µM
CCOC(=O)CN1C(=O)c2c(NC(=O)C(=O)O)cccc2S1(=O)=O,> 100 µM,> 100 µM,> 100 µM,> 100 µM,> 100 µM,> 100 µM,> 100 µM,> 100 µM,> 100 µM,> 100 µM,> 100 µM
O=C(NCCCN1CCN(CCCNC(=O)c2cc(-c3ccccc3)nc3ccccc23)CC1)c1cc(-c2ccccc2)nc2ccccc12,20.8 µM,6.06 µM,> 100 µM,> 39.7 µM,> 58.2 µM,3.21 µM,> 62.6 µM,> 78.2 µM,> 60.2 µM,3.98 µM,60.2 µM
COc1cccc(C2c3cc4c(cc3OC(NNC(N)=O)C2C)OCO4)c1OC (configuration not stated),83.4 µM,> 100 µM,27.6 µM,62.3 µM,62 µM,73.8 µM,81.6 µM,> 100 µM,> 100 µM,43.9 µM,86.3 µM
COc1cc2c(cc1OC)-c1cc3cc(OC)c(OC)cc3c(C)[n+]1CC2 (tested in a mixture with another compound),> 100 µM,62.5 µM,> 100 µM,> 100 µM,> 100 µM,> 100 µM,> 100 µM,> 100 µM,> 100 µM,> 100 µM,> 100 µM
CC(=O)c1ccc(Nc2nc3ccccc3c3occc23)cc1,16.1 µM,28.4 µM,27.8 µM,17.3 µM,44.3 µM,63.4 µM,> 100 µM,> 100 µM,75.7 µM,28.2 µM,35.8 µM
CC(C)(Cl)C(Cl)CC/C(CBr)=C(\Cl)CBr (configuration not stated),7.08 µM,21.6 µM,5.89 µM,25 µM,6.08 µM,4.83 µM,4.42 µM,5.19 µM,7.67 µM,3.74 µM,3.82 µM
CCOC(=O)c1c(Br)c(-c2ccc([N+](=O)[O-])cc2)c(Br)n1C,> 10 µM,> 10 µM,> 10 µM,> 10 µM,> 10 µM,> 10 µM,> 10 µM,> 10 µM,> 10 µM,> 10 µM,> 10 µM
CC(=O)c1sc2c(c1OC(=O)c1ccccc1)c(=O)n(-c1ccccc1)c(=S)n2-c1ccccc1,> 26.4 µM,45.4 µM,34.2 µM,12.9 µM,92.3 µM,5.92 µM,22.7 µM,17.1 µM,> 63 µM,18.4 µM,> 86.9 µM
CC1=C(C(=O)NNC(=O)c2ccccc2O)CC(C(=O)NNC(=O)c2ccccc2O)=C(C)N1,> 100 µM,> 100 µM,> 51.5 µM,> 100 µM,> 100 µM,> 100 µM,> 27.9 µM,> 100 µM,> 100 µM,> 100 µM,> 100 µM
CCn1c(=O)c2c3ccc(O)cc3[nH]c2c2ccc(O)cc21,> 100 µM,> 100 µM,> 100 µM,> 100 µM,> 100 µM,> 100 µM,> 100 µM,> 100 µM,> 100 µM,> 100 µM,> 100 µM
O=C(OCC1CC(C2(O)CCCCC2)C(=O)O1)c1ccccc1 (configuration not stated),> 100 µM,> 100 µM,> 100 µM,> 100 µM,> 100 µM,> 100 µM,> 100 µM,> 100 µM,> 100 µM,> 100 µM,> 100 µM
COC1=C(OC)C(=O)C(C/C=C/c2c(Cl)nc3sccn23)=C(C)C1=O,50.7 µM,39.3 µM,33.5 µM,46.9 µM,44.4 µM,17 µM,25.3 µM,38 µM,38 µM,12.9 µM,34.9 µM
CCOC(=O)C12CCC(c3c(C)cccc3C)(O1)C(C(=O)OC)=C2C(=O)OC (configuration not stated),> 10 µM,> 10 µM,> 10 µM,4.72 µM,> 10 µM,6.4 µM,9.93 µM,> 9.61 µM,> 10 µM,5.37 µM,> 10 µM
